Measured values as given in publication PMC5469758, “Identification of an in vivo orally active dual-binding protein-protein interaction inhibitor targeting TNFα through combined in silico/in vitro/in vivo screening” (Scientific Reports, 2017).
Read-outs that look alike come from different tables or passages of the source.

Tests used:
[1] = test system: IκB kinases (IKK), JNK1, p38 and Syk, caspase 3, caspase 8; assay: Direct inhibition of kinases and caspases related to the TNFα pathway (CEREP/Eurofins panel); assay type: biochemical; conditions: at 1 µM
Protocol: (§1) Kinases and caspases activities in presence of 1 µM of compound 1 were carried out by CEREP/Eurofins (Celle-Lévescault). The activity of compound 1 on the different kinases and caspases was compared to control values. Data are expressed as percentages of inhibition of control values.

TNFα [2] = target: T1, TNFα (Homo sapiens, UniProt P01375); assay: Intrinsic tryptophan fluorescence of TNFα; assay type: binding; conditions: 0.5 μM TNFα; 20–100 µM range
T1 construct: purchased R&D Systems
Protocol: All samples were brought to 10 mM phosphate buffer, 0.05% Tween20, 1% DMSO. Fluorescence readings were made with a Quantamaster QM4CW spectrofluorimeter (Photon Technology International), by exciting TNFα at 290 nm and measuring the emission peaks at 322 nm. Compound 1 inner filter effects were corrected using absorbance measurements of compound alone solutions at 290 nm and 322 nm.

IKKβ = target: T2, IKKβ (Homo sapiens, UniProt O14920); assay: CEREP/Eurofins kinase inhibition, IKKβ; assay type: biochemical; conditions: read-out: % Inhibition of Control Values
T2 construct: purchased CEREP/Eurofins
Protocol: as §1

TNFα/TNFRII = target: T3, TNFα/TNFRII (Homo sapiens, UniProt P01375); assay: TNFα-TNFRII binding ELISA; assay type: biochemical
T3 construct: purchased R&D Systems
Protocol: (§2) Microtiter plates were coated with 12.5 ng of TNFRI or TNFRII in 125 μl of PBS per well at 37 °C. The wells were washed, blocked with PBS/BSA 2% for three hours and washed as before. Serial dilutions of compounds were mixed with a fixed quantity of TNFα in PBS/BSA 1% and incubated two hours at 37 °C. 125 μl of the mix were added to the wells and plates were incubated overnight at 4 °C. Wells were washed incubated with 37.5 ng of TNFα biotinylated antibody in 125 μl of PBS/BSA 1% for two hours at 37 °C. Wells were washed and incubated with avidin-HRP (1:500) in 125 μl of PBS/BSA 1% for 30 minutes at 37 °C, 5% CO2. After washing, TMB solution was added to wells, quenched with 63 μl of 1 M H2SO4 solution. Absorbance was measured at 450 nm.

IKKε = target: T4, IKKε (Homo sapiens, UniProt Q14164); assay: CEREP/Eurofins kinase inhibition, IKKε; assay type: biochemical; conditions: read-out: % Inhibition of Control Values
T4 construct: purchased CEREP/Eurofins
Protocol: as §1

JNK1 = target: T5, JNK1 (Homo sapiens, UniProt P45983); assay: CEREP/Eurofins kinase inhibition, JNK1; assay type: biochemical; conditions: JNK1, 1 μM; read-out: % Inhibition of Control Values
T5 construct: purchased CEREP/Eurofins
Protocol: as §1

[3] = Solubility in aqueous solvents; assay type: physicochemical
TNFα/TNFRI = target: T6, TNFα/TNFRI (Homo sapiens, UniProt P01375); assay: TNFα-TNFRI binding ELISA; assay type: biochemical
T6 construct: purchased R&D Systems
Protocol: as §2

Balb/C mice = assay: LPS/D-Galactosamine induced lethal shock (TNFα-dependent hepatic shock model); assay type: in vivo
Protocol: 7 weeks-old Balb/C mice were force-fed with 100 μl of a solution of DMSO containing various doses of compound 1 (5 mg down to 0.5 mg) eight hours before receiving an intraperitoneal injection of 200 μl of PBS containing 0.1 μg of LPS and 20 mg of D-Galactosamine. A control group (DMSO) was force-fed with 100 μl of a solution of DMSO alone eight hours before to be injected with 200 μl of LPS/D-Galactosamine solution. Mice survival was monitored for 48 hours after the injection of LPS/D-Galactosamine.
7 weeks-old Balb/C mice were forced-fed with a solution of DMSO containing 5 mg of compound 1 eight hours before receiving an intraperitoneal injection of 200 μl of PBS containing 0.1 μg of LPS and 20 mg of D-Galactosamine. Eight hours after LPS/D-Galactosamine injection, mice were sacrificed by cervical dislocation and livers were harvested, fixed in 4% formalin and embedded in paraffin. […] Slides were scanned with a slide scanner (Perkin Elmer) and analyzed with Pannoramic viewer (3D HISTECH).
7 weeks-old Balb/C mice were forced-fed with a solution of DMSO containing 5 mg of compound 1 eight hours before receiving an intraperitoneal injection of 200 μl of PBS containing 0.1 μg of LPS and 20 mg of D-Galactosamine. Three hours after LPS/D-Galactosamine injection, mice were anesthetized with ketamine/xylazine to recover blood by cardiac puncture. Sera were kept at −80 °C until assay.
TNFα in serum was quantified using U-CyTech biosciences kits (Utrecht, The Netherlands) according to manufacturer’s procedures.
7 weeks-old Balb/C mice were forced-fed with a solution of DMSO containing 5 mg of compound 1 eight hours before receiving an intraperitoneal injection of 200 μl of PBS containing 0.1 μg of LPS and 20 mg of D-Galactosamine. Eight hours after, mice were anesthetized by an injection of ketamine/xylazine to recover blood by cardiac puncture. Sera were kept at −80 °C until assay. Quantification of AST/ALT was performed using Architec ci 8200 analyser (Abbott) with reagent kits from Abbott.

Caspase 8 = target: T7, Caspase 8 (Homo sapiens, UniProt Q14790); assay: CEREP/Eurofins caspase inhibition, Caspase 8; assay type: biochemical; conditions: Caspase 8, 1 μM; read-out: % Inhibition of Control Values
T7 construct: purchased CEREP/Eurofins
Protocol: as §1

[4] = test system: CXCL1 secretion by L929 cells; assay: CXCL1 secretion in L929 supernatants after TNFα stimulation (ELISA); assay type: cell-based, murine; conditions: TNFα (5 ng/ml)
Protocol: Cells were plated at 2.5 × 10^5 cells/well in 24-well plates and treated as indicated. Eight hours later, supernatants were recovered and kept at −20 °C for later use. The concentration of murine CXCL1 was measured in supernatants with a dosage ELISA kit obtained from R&D Systems (Lille, France) according to the manufacter’s procedures.

Bioavailability = assay type: in vivo; conditions: mouse, oral
[5] = test system: human TNFα induced apoptosis on the L929 cell line; assay: Neutralization of human TNFα induced apoptosis in L929 cells (MTT); assay type: cell-based; conditions: human TNFα, read-out: IC50, inhibition of TNFα induced apoptosis
Protocol: (§3) 80% confluent L929 cells were plated in flat bottom plates at 4 × 10^5 cells per well in 100 μl of DMEM medium containing 10% FBS, 2 mM L-Glutamine, 100 U/ml Penicillin − 100 μg/ml Streptomycin and incubated for one night at 37 °C, 5% CO2. TNFα or TNFβ (150 pg/ml), Actinomycin D (4 μg/ml) and the compounds at different concentrations (ranging from 100 μM to 0.8 μM) were mixed in 150 μl DMEM medium 1% FBS, 2 mM L-Glutamine, 100 U/ml Penicillin−100 μg/ml Streptomycin in U-bottom plates. After two hours incubation at 37 °C, 5% CO2, 100 μl of the mix was added to the plated cells and incubated at 37 °C, 5% CO2 for 24 hours. Supernatants were discarded and 100 μl of MTT at 0.5 mg/ml were added to wells. After two hours, supernatants were discarded and 200 μl of DMSO were then added. Plates were read at 570 nm with a spectrophotometer providing the optical density (OD) of each well. The percentage of neutralization of TNFα by a compound was calculated using equation 3:3 %Neutra=ODcompound−ODTNFα/ODcells−ODTNFα×100
(§4) An IC50 could be computed from the percentage of neutralization for each compound.

Syk = target: T8, Syk (Homo sapiens, UniProt P43405); assay: CEREP/Eurofins kinase inhibition, Syk; assay type: biochemical; conditions: read-out: % Inhibition of Control Values
T8 construct: purchased CEREP/Eurofins
Protocol: as §1

p38γ kinase = target: T9, p38γ kinase (Homo sapiens, UniProt P53778); assay: CEREP/Eurofins kinase inhibition, p38γ; assay type: biochemical; conditions: read-out: % Inhibition of Control Values
T9 construct: purchased CEREP/Eurofins
Protocol: as §1

[6] = test system: TNFα induced NF-κB activation in HEK cells; assay: HEK-Blue TNFα NF-κB secreted embryonic alkaline phosphatase reporter assay; assay type: cell-based, human; conditions: Homo sapiens, HEK293; HEK cell line expressing TNFRI; read-out: IC50, TNFα signaling NF-κB reporter
Protocol: 80% confluent HEK-Blue™ TNFα were plated in flat bottom plates at 5 × 10^4 per well in 100 μl of DMEM containing 2 mM L-Glutamine, 100 U/ml Penicillin − 100 μg/ml Streptomycin and incubated at 37 °C, 5% CO2. Serial dilutions of compounds (ranging from 100 μM to 0.8 μM) were mixed with 400 pg/ml of human TNFα in DMEM containing 2% of FBS, 2 mM L-Glutamine, 100 U/ml Penicillin−100 μg/ml Streptomycin in U-bottom plates. After two hours of incubation at 37 °C, 5% CO2, 100 μl of the mix was added to the plated cells and incubated 24 hours at 37 °C, 5% CO2. 20 μl of supernatants were incubated for 3 hours with 180 μl of QUANTI-Blue™ to reveal secretion of phosphatase alcaline and plates were read at 620 nm with a spectrophotometer providing the optical density (OD).

[7] = test system: TNFβ induced apoptosis in L929 cell line; assay: Neutralization of TNFβ induced apoptosis in L929 cells (MTT); assay type: cell-based
Protocol: as §3, §4

p38δ kinase = target: T10, p38δ kinase (Homo sapiens, UniProt O15264); assay: CEREP/Eurofins kinase inhibition, p38δ; assay type: biochemical; conditions: read-out: % Inhibition of Control Values
T10 construct: purchased CEREP/Eurofins
Protocol: as §1

p38α kinase = target: T11, p38α kinase (Homo sapiens, UniProt Q16539); assay: CEREP/Eurofins kinase inhibition, p38α; assay type: biochemical; conditions: read-out: % Inhibition of Control Values
T11 construct: purchased CEREP/Eurofins
Protocol: as §1

Caspase 3 = target: T12, Caspase 3 (Homo sapiens, UniProt P42574); assay: CEREP/Eurofins caspase inhibition, Caspase 3; assay type: biochemical; conditions: Caspase 3, 1 μM; read-out: % Inhibition of Control Values
T12 construct: purchased CEREP/Eurofins
Protocol: as §1

caspase 3 activation = assay: Caspase-Glo 3 activation assay; assay type: cell-based; conditions: dose dependent
Protocol: (§5) Caspases 3 and 8 activation was determined using Caspase-Glo® 3 and Caspase-Glo-8® assays kits (Promega) according to the manufacter’s procedures. After 8 hours of treatment, plates were equilibrated at room temperature. 100 μl Caspase-Glo 3® and Caspase-Glo 8® reagent were added to each well. Luminescence was read on a FLUOstar OPTIMA reader.

caspase 8 activation = assay: Caspase-Glo 8 activation assay; assay type: cell-based; conditions: dose dependent
Protocol: as §5

[8] = test system: murine TNFα-induced apoptosis on L929 cells; assay: Neutralization of murine TNFα induced apoptosis in L929 cells; assay type: cell-based; conditions: Mus musculus
Protocol: as §3, §4

TNFα [9] = target: T1, TNFα; assay: Surface Acoustic Wave (SAW) biosensor gravimetric measurement of dissociation constants; assay type: binding; conditions: for Kd: two-site binding model, room temperature
Protocol: Gravimetric measurements were performed using surface acoustic wave (SAW) sensors. TNFα solutions were prepared by diluting 10 µg of lyophilized TNFα in 1 ml of PBS. They were kept in the freezer (at −18 °C) and put at room temperature just before their further grafting onto the gold surface area of the SAW sensor.
Phase shift variations (ΔΦ) versus compound concentration (C) were fitted using equation 1 ΔΦ=Φsat×C/Kd+C where Φsat represents the maximum sensor’s response to the compound binding and Kd represents the equilibrium dissociation constant.
In the case of a two-site binding, equation 2 was used for fitting:2 ΔΦ=Φsat,1×C/Kd1+C+Φsat,2×C/Kd2+C
where Φsat1 and Φsat2 are related to the maximum sensor’s response for each binding site and Kd1 and Kd2 are their respective dissociation constants.

IKKα = target: T13, IKKα (Homo sapiens, UniProt O15111); assay: CEREP/Eurofins kinase inhibition, IKKα; assay type: biochemical; conditions: read-out: % Inhibition of Control Values
T13 construct: purchased CEREP/Eurofins
Protocol: as §1

[10] = livers eight hours after LPS/D-Galactosamine

T1 sequence (P01375 77-233 limits assumed): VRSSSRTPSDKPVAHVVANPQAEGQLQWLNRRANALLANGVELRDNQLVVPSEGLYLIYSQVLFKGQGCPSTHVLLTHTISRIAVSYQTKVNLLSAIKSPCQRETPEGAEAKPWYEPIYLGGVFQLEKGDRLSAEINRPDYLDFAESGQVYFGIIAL
T5 sequence (P45983 whole entry): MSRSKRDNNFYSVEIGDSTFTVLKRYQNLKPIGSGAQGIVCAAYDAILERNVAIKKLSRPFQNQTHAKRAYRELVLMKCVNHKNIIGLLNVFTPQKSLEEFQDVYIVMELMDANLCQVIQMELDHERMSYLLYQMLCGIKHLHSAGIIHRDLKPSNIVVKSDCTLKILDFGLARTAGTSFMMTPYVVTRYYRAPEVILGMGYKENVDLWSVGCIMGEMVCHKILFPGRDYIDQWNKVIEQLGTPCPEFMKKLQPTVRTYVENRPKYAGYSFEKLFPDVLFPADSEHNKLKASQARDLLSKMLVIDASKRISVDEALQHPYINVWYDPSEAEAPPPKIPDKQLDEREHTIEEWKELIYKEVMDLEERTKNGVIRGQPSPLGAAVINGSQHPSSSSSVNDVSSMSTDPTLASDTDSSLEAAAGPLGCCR
T7 sequence (Q14790 217-374 limits assumed): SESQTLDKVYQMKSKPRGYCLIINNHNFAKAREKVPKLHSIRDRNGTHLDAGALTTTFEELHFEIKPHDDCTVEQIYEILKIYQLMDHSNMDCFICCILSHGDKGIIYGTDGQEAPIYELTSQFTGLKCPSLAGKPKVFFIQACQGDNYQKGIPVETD
T6 sequence (P01375 77-233 limits assumed): as the sequence (P01375 77-233 limits assumed) above
T3 sequence (P01375 77-233 limits assumed): as above
T10 sequence (O15264 whole entry): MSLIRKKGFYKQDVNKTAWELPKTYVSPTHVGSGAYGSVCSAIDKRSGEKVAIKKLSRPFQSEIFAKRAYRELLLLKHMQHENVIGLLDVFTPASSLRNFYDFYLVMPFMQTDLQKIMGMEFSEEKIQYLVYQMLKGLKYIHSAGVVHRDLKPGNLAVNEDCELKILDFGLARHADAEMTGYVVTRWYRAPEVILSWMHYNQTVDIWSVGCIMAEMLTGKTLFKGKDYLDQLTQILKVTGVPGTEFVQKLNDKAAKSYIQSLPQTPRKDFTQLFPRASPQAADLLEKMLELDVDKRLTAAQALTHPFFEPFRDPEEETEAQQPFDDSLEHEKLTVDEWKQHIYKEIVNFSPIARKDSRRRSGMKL
T12 sequence (P42574 29-175 limits assumed): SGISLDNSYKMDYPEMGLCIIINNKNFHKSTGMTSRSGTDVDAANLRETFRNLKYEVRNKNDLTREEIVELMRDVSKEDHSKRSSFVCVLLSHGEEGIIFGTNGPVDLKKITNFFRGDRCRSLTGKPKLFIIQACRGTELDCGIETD
T2 sequence (O14920 whole entry): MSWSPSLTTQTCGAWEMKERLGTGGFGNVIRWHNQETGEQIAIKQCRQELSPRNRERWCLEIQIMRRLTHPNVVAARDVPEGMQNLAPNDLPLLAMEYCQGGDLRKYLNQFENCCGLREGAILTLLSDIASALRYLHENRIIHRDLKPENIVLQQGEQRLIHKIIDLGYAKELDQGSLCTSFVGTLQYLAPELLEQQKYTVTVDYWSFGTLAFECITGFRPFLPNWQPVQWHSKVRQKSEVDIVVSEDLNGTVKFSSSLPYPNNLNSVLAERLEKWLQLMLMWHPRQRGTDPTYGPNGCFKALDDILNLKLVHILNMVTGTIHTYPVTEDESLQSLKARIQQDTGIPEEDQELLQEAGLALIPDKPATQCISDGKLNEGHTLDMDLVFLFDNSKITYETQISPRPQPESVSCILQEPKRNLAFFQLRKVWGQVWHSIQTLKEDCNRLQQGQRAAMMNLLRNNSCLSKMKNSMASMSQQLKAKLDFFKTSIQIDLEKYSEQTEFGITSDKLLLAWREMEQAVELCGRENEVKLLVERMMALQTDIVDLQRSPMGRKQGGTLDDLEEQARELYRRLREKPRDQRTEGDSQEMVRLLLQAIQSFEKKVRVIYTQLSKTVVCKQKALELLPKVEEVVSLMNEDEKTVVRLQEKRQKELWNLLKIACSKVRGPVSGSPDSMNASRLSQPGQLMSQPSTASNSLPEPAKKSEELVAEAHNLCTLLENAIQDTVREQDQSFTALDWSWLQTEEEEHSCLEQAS
T9 sequence (P53778 whole entry): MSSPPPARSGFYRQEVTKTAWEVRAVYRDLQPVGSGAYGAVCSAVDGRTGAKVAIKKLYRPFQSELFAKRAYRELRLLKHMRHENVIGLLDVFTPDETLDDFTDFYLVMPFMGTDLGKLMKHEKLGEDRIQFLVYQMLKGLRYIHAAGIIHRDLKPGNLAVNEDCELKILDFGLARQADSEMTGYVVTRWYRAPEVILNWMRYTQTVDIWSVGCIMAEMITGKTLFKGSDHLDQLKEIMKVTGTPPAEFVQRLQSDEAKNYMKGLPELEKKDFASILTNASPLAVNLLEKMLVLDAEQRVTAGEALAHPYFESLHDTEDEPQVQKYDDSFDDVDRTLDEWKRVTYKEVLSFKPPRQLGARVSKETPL
T13 sequence (O15111 whole entry): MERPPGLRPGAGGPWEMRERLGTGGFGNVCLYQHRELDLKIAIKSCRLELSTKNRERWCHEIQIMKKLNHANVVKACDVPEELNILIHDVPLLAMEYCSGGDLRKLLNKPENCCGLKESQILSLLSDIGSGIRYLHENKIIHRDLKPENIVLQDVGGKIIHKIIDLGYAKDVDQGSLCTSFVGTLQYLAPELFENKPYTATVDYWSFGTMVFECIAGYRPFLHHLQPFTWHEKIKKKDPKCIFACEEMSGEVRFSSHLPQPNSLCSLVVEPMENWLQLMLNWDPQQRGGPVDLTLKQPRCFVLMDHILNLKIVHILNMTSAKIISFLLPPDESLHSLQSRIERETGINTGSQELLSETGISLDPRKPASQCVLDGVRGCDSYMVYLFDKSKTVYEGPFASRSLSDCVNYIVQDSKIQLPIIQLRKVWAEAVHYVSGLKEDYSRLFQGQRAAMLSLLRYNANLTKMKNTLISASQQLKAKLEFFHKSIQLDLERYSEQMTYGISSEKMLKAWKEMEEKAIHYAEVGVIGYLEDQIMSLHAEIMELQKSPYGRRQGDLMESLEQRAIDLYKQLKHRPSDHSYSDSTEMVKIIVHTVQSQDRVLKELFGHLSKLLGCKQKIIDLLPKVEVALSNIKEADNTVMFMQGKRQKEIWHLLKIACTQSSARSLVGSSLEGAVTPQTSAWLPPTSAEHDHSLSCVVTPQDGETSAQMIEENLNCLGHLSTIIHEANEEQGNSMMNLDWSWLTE
T4 sequence (Q14164 whole entry): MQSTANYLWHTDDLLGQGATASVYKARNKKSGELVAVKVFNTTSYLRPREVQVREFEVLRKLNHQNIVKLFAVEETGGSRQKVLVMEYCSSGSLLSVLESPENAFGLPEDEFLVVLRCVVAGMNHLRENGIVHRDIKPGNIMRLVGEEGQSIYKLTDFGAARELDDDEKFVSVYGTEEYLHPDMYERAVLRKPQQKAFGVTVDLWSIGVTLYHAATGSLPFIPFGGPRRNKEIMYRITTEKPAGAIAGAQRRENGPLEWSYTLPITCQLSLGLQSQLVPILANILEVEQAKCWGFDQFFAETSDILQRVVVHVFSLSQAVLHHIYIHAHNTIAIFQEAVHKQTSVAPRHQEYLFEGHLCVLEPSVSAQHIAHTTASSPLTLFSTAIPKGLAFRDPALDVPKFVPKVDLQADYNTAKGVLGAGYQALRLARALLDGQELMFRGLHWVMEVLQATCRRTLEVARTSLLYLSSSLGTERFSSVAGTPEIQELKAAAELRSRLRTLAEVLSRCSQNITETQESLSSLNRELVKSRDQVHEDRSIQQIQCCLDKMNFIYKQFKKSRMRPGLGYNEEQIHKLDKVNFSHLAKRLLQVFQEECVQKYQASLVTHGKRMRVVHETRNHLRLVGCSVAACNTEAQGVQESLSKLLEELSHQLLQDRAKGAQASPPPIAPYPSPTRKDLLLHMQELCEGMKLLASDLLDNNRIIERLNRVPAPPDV
T11 sequence (Q16539 whole entry): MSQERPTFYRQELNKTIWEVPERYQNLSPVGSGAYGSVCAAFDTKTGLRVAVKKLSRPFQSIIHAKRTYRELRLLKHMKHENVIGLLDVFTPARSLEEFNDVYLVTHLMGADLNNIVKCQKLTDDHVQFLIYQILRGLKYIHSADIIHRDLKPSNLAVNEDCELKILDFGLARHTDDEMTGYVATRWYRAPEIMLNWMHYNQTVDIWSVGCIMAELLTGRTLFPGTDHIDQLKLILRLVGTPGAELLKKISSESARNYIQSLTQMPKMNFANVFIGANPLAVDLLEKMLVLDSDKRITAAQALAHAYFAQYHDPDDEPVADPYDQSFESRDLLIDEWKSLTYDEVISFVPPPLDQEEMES

Cc1c(Cl)cccc1N(CC(=O)N1CCN(Cc2ccccc2)CC1)S(=O)(=O)c1ccccc1 [Compound 1]
effect on kinases and caspases related to the TNFα pathway [1]: no significant effect
modification of intrinsic tryptophan fluorescence of TNFα (TNFα [2]): dose dependent manner
inhibition at 1 µM (IKKβ): 10.3%
IC50 (TNFα/TNFRII): 31 µM
inhibition at 1 µM (IKKε): 7.3%
inhibition at 1 µM (JNK1): -3%
solubility in aqueous solvents [3]: moderate solubility
IC50 (TNFα/TNFRI): 37 µM
expression of cleaved caspase 3 in liver (immunohistochemistry) (Balb/C mice; [10]): reduced expression of cleaved caspase 3
liver damage and hemorrhage (H&E histopathology) (Balb/C mice; [10]): reduced liver damage and hemorrhage
mice survival / protection from shock (Balb/C mice; oral 5 mg per mouse eight hours before shock): fully protective effect
mice serum level of AST/ALT (Balb/C mice; oral 5 mg, eight hours after shock): diminished
mice serum level of TNFα (Balb/C mice; oral 5 mg, three hours after shock): did not affect
inhibition at 1 µM (Caspase 8): -7.3%
CXCL1 in supernatants [4]: significantly less CXCL1
bioavailability (Bioavailability): low bioavailability
IC50 ([5]; L929, L929 cell line): 12 µM
IC50 ([5]; L929 cell line): ~10 µM
inhibition at 1 µM (Syk): -6.9%
inhibition at 1 µM (p38γ kinase): -11%
IC50 [6]: 10 µM
maximal survival ([7]; TNFβ, at 100 μM): 40%
IC50 ([7]; read-out: IC50, inhibition of TNFβ induced apoptosis): 28 µM
inhibition at 1 µM (p38δ kinase): -1.8%
inhibition at 1 µM (p38α kinase): 1.5%
inhibition at 1 µM (Caspase 3): -1.8%
activation of caspase 3 (caspase 3 activation): blocked the activation
activation of caspase 8 (caspase 8 activation): blocked the activation
IC50 [8]: ~10 µM
ligand efficiency LE1 (TNFα [9]; from Kd1): 0.22
ligand efficiency LE2 (TNFα [9]; from Kd2): 0.37
Kd (TNFα [9]; read-out: Kd1 of TNFα/compound 1 complex): 4.79 ± 1.12 µM
Kd (TNFα [9]; read-out: Kd2 of TNFα/compound 1 complex): 0.00231 ± 0.00103 µM
inhibition at 1 µM (IKKα): 3.2%
